According to US10059733B2 (NUCORION PHARMACEUTICALS, INC., priority 2014, dated 2018):
Where two headings read alike, the source gives them in different places.

What was measured:
HCV luciferase replicon = assay: Isobologram analysis of synergism with antiviral compound in HCV luciferase replicon; format: cell-based
Protocol: Isobologram analysis was conducted to assess the potential synergistic interaction of representative disclosed compounds with representative antiviral compounds. The isobolgram analysis was conducted as previously described by Chou and Talalay (see Chou T. C. and Talalay P. “Analysis of combined drug effects: a new look at a very old problem.” Trends Pharmacol Sci 1983; 4:450-4; and Chou T. C. and Talalay P. “Quantitative analysis of dose-effect relationships: the combined effects of multiple drugs or enzyme inhibitors.” Adv Enzyme Regul 1984; 22:27-55; both of which are incorporated herein by reference in their entirety). The definitions of synergism are those described by Chou (see Chou, T. C. (2006) Theoretical basis, experimental design, and computerized simulation of synergism and antagonism in drug combination studies. Pharmacol Rev. 58(3):621-81, which is incorporated herein by reference in its entirety).
In the synergism studies described herein, the antiviral compound shown in Table 6 was assessed in combination with a representative disclosed compound, Compound 1.

Huh7 cells = assay: Cell transport: cytotoxicity in Huh7 cells with or without ENT1 inhibitor NBTI; details: for CC50: Homo sapiens, Huh-7, 48 h
Protocol: (§1) Huh7 cells were maintained at 37° C. in a humidified atmosphere at 5% CO2 in DMEM containing 10% FBS. […] The cells were then treated with each compound at concentrations ranging from 500 μM to 0 μM in triplicate in DMEM media containing 2% FBS and 0.5% DMSO and without phenol red. After 48 h of treatment at 37° C., the relative number of living cells in each well was determined by using the CellTiter 96 system (Promega) according to the manufacturer's instructions. The 3-(4,5-dimethylthiazol-2-yl)-5-(3-carboxymethoxyphenyl)-2-(4-sulfophenyl)-2H-tetrazolium (MTS) and phenazine methosulfate (PMS) reagents were added to each well of the 96-well plate and the plate was incubated at 37° C. for approximately 2 h. The absorbance at 490 nm and 650 nm in each well was then determined by using a Flexstation 3 microplate reader ([…]). The absorbance determined at 650 nm was then subtracted from the absorbance determined at 490 nm to correct for light scattering. The corrected absorbance values representing the relative number of live cells in each condition were then plotted as a function of compound concentration, and the data were then fit to the following sigmoidal Emax equation by using Kaleidagraph: y=(Emax*x^Slope)/(TC50^Slope+x^Slope) where y is the relative corrected absorbance value, Emax is the maximum relative inhibition, x is the compound concentration, TC50 is the concentration of the compound at which the total cell population is reduced by 50%, and Slope is the slope of the curve.
(§2) To this end, Huh7 cells or PK9 cells were seeded in 96-well plates at a density of 5,000 cells/well or 2,500 cells/well, respectively, and the plates were incubated at 37° C. for 24 h to allow for cell attachment. The media was then removed from the plates and replaced with media containing 2% FBS, 0.5% DMSO and 10 μM NBTI. […] Subsequently, the cells were treated with each compound at final concentrations ranging from 500 μM to 0 μM in triplicate in media containing 2% FBS, 0.5% DMSO and 10 μM NBTI. […] The TC50 values of each compound in the presence or absence of the ENT1 inhibitor were then compared.

RPK9 cells = assay: TC50 assay in gemcitabine resistant (dCK deficient) RPK9 cells, 48 h; details: read-out: TC50 (μM) in RPK9 cells at 48 hr
Protocol: as §1
PK9 and RPK9 cells were maintained at 37° C. in a humidified atmosphere at 5% CO2 in Roswell Park Memorial Institute (RPMI) media containing 10% FBS. […] The cells were then treated with each compound at concentrations ranging from […] to 0 μM in triplicate in RPMI media containing 2% FBS and 0.5% DMSO and without phenol red. […] The RPK9 cells were derived from the parental PK9 cell line, and are deficient for dCK activity due to the partial deletion of the dCK gene.

PK9 cells = assay: Cell transport: cytotoxicity in PK9 cells with or without ENT1 inhibitor NBTI; details: Homo sapiens, PK9, 48 h
Protocol: as §1, §2

MCF-7 = assay: TC50 assay with human cancer cell lines, 96 h: MCF-7; format: cell-based; details: MCF7, 96 h, read-out: TC50 MCF-7 (μM)
Protocol: (§3) Huh7 cells were maintained at 37° C. in a humidified atmosphere at 5% CO2 in DMEM containing 10% FBS. […] The cells were then treated with each compound at concentrations ranging from 500 μM to 0 μM in triplicate in DMEM media containing 2% FBS and 0.5% DMSO and without phenol red. After 48 h of treatment at 37° C., the relative number of living cells in each well was determined by using the CellTiter 96 system (Promega) according to the manufacturer's instructions. The 3-(4,5-dimethylthiazol-2-yl)-5-(3-carboxymethoxyphenyl)-2-(4-sulfophenyl)-2H-tetrazolium (MTS) and phenazine methosulfate (PMS) reagents were added to each well of the 96-well plate and the plate was incubated at 37° C. for approximately 2 h. The absorbance at 490 nm and 650 nm in each well was then determined by using a Flexstation 3 microplate reader (Molecular Dynamics). The absorbance determined at 650 nm was then subtracted from the absorbance determined at 490 nm to correct for light scattering. The corrected absorbance values representing the relative number of live cells in each condition were then plotted as a function of compound concentration, and the data were then fit to the following sigmoidal Emax equation by using Kaleidagraph: y=(Emax*x^Slope)/(TC50^Slope+x^Slope) where y is the relative corrected absorbance value, Emax is the maximum relative inhibition, x is the compound concentration, TC50 is the concentration of the compound at which the total cell population is reduced by 50%, and Slope is the slope of the curve.
(§4) Huh7, HEPG2, HEK293, MCF-7 and BxPC3 cell lines were maintained at 37° C. in a humidified atmosphere at 5% CO2 in DMEM containing 10% FBS. […] The cells were then treated with each compound at concentrations ranging from 500 μM to 0 μM in triplicate in DMEM media containing 2% FBS and 0.5% DMSO and without phenol red.

HEPG2 = assay: TC50 assay with human cancer cell lines, 96 h: HEPG2; format: cell-based; details: HepG2, 96 h, read-out: TC50 HEPG2 (μM)
Protocol: as §3, §4

[1] = Compound 1 0.2 nM + BMS-790052 0.010 nM
[2] = Compound 1 0.4 nM + BMS-790052 0.008 nM
[3] = Compound 1 7.1 nM + BMS-790052 0.006 nM
[4] = Compound 1 14.2 nM + BMS-790052 0.004 nM

With `CCCC(CCC)C(=O)Nc1ccn([C@@H]2O[C@H](CO[P@@](=O)(N[C@@H](C)C(=O)OC(C)C)Oc3ccccc3)[C@@H](O)C2(F)F)c(=O)n1` [Compound 1, (S)-isopropyl 2-(((S)-(((2R,3R,5R)-4,4-difluoro-3-hydroxy-5-(2-oxo-4-(2-propylpentanamido)pyrimidin-1(2H)-yl)tetrahydrofuran-2-yl)methoxy)(phenoxy)phosphoryl)amino)propanoate] the “Combination Index” value (HCV luciferase replicon; [1]) was 0.505, the level of synergism (HCV luciferase replicon; [1]) was “synergism” and the “Combination Index” value (HCV luciferase replicon; [2]) was 0.410. For the same compound, the level of synergism (HCV luciferase replicon; [2]) was “synergisn”, the “Combination Index” value (HCV luciferase replicon; [3]) was 0.468 and the level of synergism (HCV luciferase replicon; [3]) was “synergism”. For the same compound, the “Combination Index” value (HCV luciferase replicon; [4]) was 0.535, the level of synergism (HCV luciferase replicon; [4]) was “synergism” and the “Combination Index” value (HCV luciferase replicon; Compound 1 42.3 nM, BMS-790052 0 nM) was 1.000. For the same compound, the “interaction of Compound 1 with BMS-790052 in the inhibition of the HCV luciferase replicon” value (HCV luciferase replicon; co-treatment with NS5A inhibitor BMS-790052) was “synergism”, the “concentration of the single agent on the IC50 isobologram (Combination Index 1.000)” value (HCV luciferase replicon; compound alone, other compound 0 nM) was 42.3 nM and the CC50 (Huh7 cells; read-out: TC50 (μM) in Huh7 cells at 48 h With NBTI) was 16.4 µM. The CC50 (Huh7 cells; read-out: TC50 (μM) in Huh7 cells at 48 h Without NBTI) was 17.4 µM, the “requirement of the ENT1 transporter for cell entry” value (Huh7 cells; conclusion from TC50 with/without 10 μM NBTI in Huh7 and PK9 cells) was “do not require the ENT1 transporter for cell entry” and the CC50 (RPK9 cells) was 24.2 ± 6.4 µM. It also gave a CC50 (PK9 cells; read-out: TC50 (μM) in PK9 cells at 48 h With NBTI) of 16.9 µM, a CC50 (PK9 cells; read-out: TC50 (μM) in PK9 cells at 48 h Without NBTI) of 25.2 µM and a CC50 (MCF-7) of 1.76 ± 0.67 µM. The CC50 (HEPG2) was 1.31 ± 0.21 µM.
